# Columns and labels:
# SETVI (Foxtail, Green) = experiment: Preemergence herbicidal evaluation; assay type: in vivo, Setaria viridis; conditions: rated 4-5 weeks after treatment
# How it was run: (§1)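 In this greenhouse assay, monocot and dicot seeds are planted in soil and treated prior to emergence with an aqueous acetone spray (about 0.0156-0.500 kg/ha). Plants are assessed visually against control on a 0-9 scale after 4-5 weeks.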
# [1] = test system: SAGPY (Arrowhead (Pygmaea)); experiment: Preemergence weed control under flooded paddy conditions; assay type: in vivo, Sagittaria pygmaea; conditions: rated 3-4 weeks after treatment
# How it was run: (§2)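 Flooded-pot preemergence screen with silt loam and seeds in the upper 0.5 cm. Dose about 0.0313 to 0.500 kg/ha, delivered into flood water; visual 0-9 score after 3 to 4 weeks.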
# [2] = test system: ECHORC (Watergrass (Calif.)); experiment: Postemergence weed control under flooded paddy conditions; assay type: in vivo, Echinochloa oryzoides; conditions: postemergence weeds, rated 3 to 4 weeks after treatment
# How it was run: (§3)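 With weeds 3 to 5 cm tall and rice at the 1.5 to 2.5 leaf stage, containers were flooded and water held 1.5 to 3 cm above soil. Compounds in 50/50 v/v aqueous/acetone went into the flood water at about 0.0313 to 0.500 kg/ha a.i. Effects were visually rated 0–9 against controls after three to four weeks in the greenhouse.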
# GALAP (Galium) [3] = experiment: Postemergence herbicidal evaluation; assay type: in vivo, Galium aparine; conditions: postemergence
# How it was run: (§4)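 Rate range approx. 0.0156–0.500 kg/ha. Foliar application at 40 psi to ~2-week seedlings; surfactant 0.5% TWEEN 20 in 50/50 acetone/water. Evaluation 4–5 wk post-treatment by 0–9 visual injury score, means of replicate tests.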
# AMBEL (Ragweed, Common) = experiment: Postemergence herbicidal evaluation; assay type: in vivo, Ambrosia artemisifolia; conditions: postemergence
# How it was run: as §4
# ORYSAT (Rice, Tebonnet) = experiment: Preemergence herbicidal evaluation; assay type: in vivo, Oryza sativa, (L.) Tebonnet; conditions: rated 4-5 weeks after treatment
# How it was run: as §1
# CYPSE (Flatsedge) = experiment: Preemergence weed control under flooded paddy conditions; assay type: in vivo, Cyperus serotinus; conditions: rated 3-4 weeks after treatment
# How it was run: as §2
# [4] = test system: TRZAWR (Wheat, Winter, cv Riband); experiment: Postemergence herbicidal evaluation; assay type: in vivo, Triticum aestivum; conditions: postemergence
# How it was run: as §4
# [5] = test system: SAGPY (Arrowhead (Pygmaea)); experiment: Postemergence weed control under flooded paddy conditions; assay type: in vivo, Sagittaria pygmaea; conditions: postemergence weeds, rated 3 to 4 weeks after treatment
# How it was run: as §3
# CASOB (Sicklepod) = experiment: Postemergence herbicidal evaluation; assay type: in vivo, Cassia obtusifolia; conditions: postemergence
# How it was run: as §4
# [6] = test system: ECHORC (Watergrass (Calif.)); experiment: Preemergence weed control under flooded paddy conditions; assay type: in vivo, Echinochloa oryzoides; conditions: rated 3-4 weeks after treatment
# How it was run: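 Silt loam, seeds in top 0.5 cm; flood held 1.5-3 cm; test cpd as acetone/water 50/50 into flood water, ~0.0313-0.500 kg/ha a.i.; greenhouse 3-4 wk; visual 0-9 score vs control.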
# [7] = test system: GLXMAW (Soybean, Williams); experiment: Postemergence herbicidal evaluation; assay type: in vivo, Glycine max, (L.) Merr. cv Williams; conditions: postemergence
# How it was run: as §4
# GALAP (Galium) [8] = experiment: Preemergence herbicidal evaluation; assay type: in vivo, Galium aparine; conditions: rated 4-5 weeks after treatment
# How it was run: as §1
structure (smiles),measurement,setting,value
"C[C@@H](C(=O)OC(C)(C)C)N1C(=O)CSC1=Nc1cc(-n2c(=O)cc(C(F)(F)F)n(C)c2=O)c(F)cc1Cl [Compound 75, tert-Butyl 2-{{2-chloro-5-[3,6-dihydro-3-methyl-2,6-dioxo-4-(trifluoromethyl)-1(2H)-pyrimidinyl]-4-fluorophenyl}imino}-α-methyl-4-oxo-3-thiazolidineacetate, L-]",Preemergence herbicidal rating SETVI,"SETVI (Foxtail, Green); rate 0.0156 kg/ha",0.0
same,Preemergence herbicidal rating SETVI,"SETVI (Foxtail, Green); rate 0.0313 kg/ha",0.0
same,Preemergence herbicidal rating SETVI,"SETVI (Foxtail, Green); rate 0.0625 kg/ha",0.0
same,Preemergence herbicidal rating SETVI,"SETVI (Foxtail, Green); rate 0.1250 kg/ha",9.0
same,Preemergence herbicidal rating SETVI,"SETVI (Foxtail, Green); rate 0.2500 kg/ha",9.0
same,SAGPY herbicidal effect rating,[1]; 0.0313 kg/ha,0.0
same,SAGPY herbicidal effect rating,[1]; 0.0625 kg/ha,0.0
same,SAGPY herbicidal effect rating,[1]; 0.1250 kg/ha,0.0
same,SAGPY herbicidal effect rating,[1]; 0.2500 kg/ha,3.0
same,Herbicidal rating ECHORC,[2]; Rate 0.0313 kg/ha,6.0
same,Herbicidal rating ECHORC,[2]; Rate 0.0625 kg/ha,6.0
same,Herbicidal rating ECHORC,[2]; Rate 0.1250 kg/ha,9.0
same,Herbicidal rating ECHORC,[2]; Rate 0.2500 kg/ha,9.0
same,GALAP herbicidal rating,GALAP (Galium) [3]; rate 0.0158 kg/ha,1.0
same,GALAP herbicidal rating,GALAP (Galium) [3]; rate 0.0315 kg/ha,2.0
same,GALAP herbicidal rating,GALAP (Galium) [3]; rate 0.0630 kg/ha,5.0
same,AMBEL herbicidal rating,"AMBEL (Ragweed, Common); rate 0.0158 kg/ha",7.0
same,AMBEL herbicidal rating,"AMBEL (Ragweed, Common); rate 0.0315 kg/ha",5.0
same,AMBEL herbicidal rating,"AMBEL (Ragweed, Common); rate 0.0630 kg/ha",9.0
same,Preemergence herbicidal rating ORYSAT,"ORYSAT (Rice, Tebonnet); rate 0.0156 kg/ha",0.0
same,Preemergence herbicidal rating ORYSAT,"ORYSAT (Rice, Tebonnet); rate 0.0313 kg/ha",0.0
same,Preemergence herbicidal rating ORYSAT,"ORYSAT (Rice, Tebonnet); rate 0.0625 kg/ha",0.0
same,Preemergence herbicidal rating ORYSAT,"ORYSAT (Rice, Tebonnet); rate 0.1250 kg/ha",1.0
same,Preemergence herbicidal rating ORYSAT,"ORYSAT (Rice, Tebonnet); rate 0.2500 kg/ha",2.0
same,CYPSE herbicidal effect rating,CYPSE (Flatsedge); 0.0313 kg/ha,2.0
same,CYPSE herbicidal effect rating,CYPSE (Flatsedge); 0.0625 kg/ha,3.0
same,CYPSE herbicidal effect rating,CYPSE (Flatsedge); 0.1250 kg/ha,3.0
same,CYPSE herbicidal effect rating,CYPSE (Flatsedge); 0.2500 kg/ha,3.0
same,TRZAWR herbicidal rating,[4]; rate 0.0158 kg/ha,2.5
same,TRZAWR herbicidal rating,[4]; rate 0.0315 kg/ha,2.5
same,TRZAWR herbicidal rating,[4]; rate 0.0630 kg/ha,2.5
same,Herbicidal rating SAGPY,[5]; Rate 0.0313 kg/ha,0.0
same,Herbicidal rating SAGPY,[5]; Rate 0.0625 kg/ha,0.0
same,Herbicidal rating SAGPY,[5]; Rate 0.1250 kg/ha,0.0
same,Herbicidal rating SAGPY,[5]; Rate 0.2500 kg/ha,3.0
same,CASOB herbicidal rating,CASOB (Sicklepod); rate 0.0158 kg/ha,1.0
same,CASOB herbicidal rating,CASOB (Sicklepod); rate 0.0315 kg/ha,1.0
same,CASOB herbicidal rating,CASOB (Sicklepod); rate 0.0630 kg/ha,3.0
same,ECHORC herbicidal effect rating,[6]; 0.0313 kg/ha,6.0
same,ECHORC herbicidal effect rating,[6]; 0.0625 kg/ha,6.0
same,ECHORC herbicidal effect rating,[6]; 0.1250 kg/ha,9.0
same,ECHORC herbicidal effect rating,[6]; 0.2500 kg/ha,9.0
same,GLXMAW herbicidal rating,[7]; rate 0.0158 kg/ha,4.0
same,GLXMAW herbicidal rating,[7]; rate 0.0315 kg/ha,4.5
same,GLXMAW herbicidal rating,[7]; rate 0.0630 kg/ha,5.0
same,Preemergence herbicidal rating GALAP,GALAP (Galium) [8]; rate 0.0156 kg/ha,0.0
same,Preemergence herbicidal rating GALAP,GALAP (Galium) [8]; rate 0.0313 kg/ha,0.0
same,Preemergence herbicidal rating GALAP,GALAP (Galium) [8]; rate 0.0625 kg/ha,0.0
same,Preemergence herbicidal rating GALAP,GALAP (Galium) [8]; rate 0.1250 kg/ha,0.0
same,Preemergence herbicidal rating GALAP,GALAP (Galium) [8]; rate 0.2500 kg/ha,0.0
"CCOC(=O)[C@H](Cc1ccccc1)N1C(=O)CSC1=Nc1cc(-n2c(=O)cc(C(F)(F)F)n(C)c2=O)c(F)cc1Cl [Compound 80, Ethyl α-benzyl-2-{{2-chloro-5-[3,6-dihydro-3-methyl-2,6-dioxo-4-(trifluoromethyl)-1(2H)-pyrimidinyl]-4-fluorophenyl}imino}-4-oxo-3-thiazolidineacetate, L-]",Preemergence herbicidal rating SETVI,"SETVI (Foxtail, Green); rate 0.0156 kg/ha",0.0
same,Preemergence herbicidal rating SETVI,"SETVI (Foxtail, Green); rate 0.0313 kg/ha",0.0
same,Preemergence herbicidal rating SETVI,"SETVI (Foxtail, Green); rate 0.0625 kg/ha",1.0
same,Preemergence herbicidal rating SETVI,"SETVI (Foxtail, Green); rate 0.1250 kg/ha",7.0
same,Preemergence herbicidal rating SETVI,"SETVI (Foxtail, Green); rate 0.2500 kg/ha",7.0
same,SAGPY herbicidal effect rating,[1]; 0.0313 kg/ha,0.0
same,SAGPY herbicidal effect rating,[1]; 0.0625 kg/ha,0.0
same,SAGPY herbicidal effect rating,[1]; 0.1250 kg/ha,0.0
same,SAGPY herbicidal effect rating,[1]; 0.2500 kg/ha,0.0
same,Herbicidal rating ECHORC,[2]; Rate 0.0313 kg/ha,9.0
same,Herbicidal rating ECHORC,[2]; Rate 0.0625 kg/ha,9.0
same,Herbicidal rating ECHORC,[2]; Rate 0.1250 kg/ha,9.0
same,Herbicidal rating ECHORC,[2]; Rate 0.2500 kg/ha,9.0
same,GALAP herbicidal rating,GALAP (Galium) [3]; rate 0.0158 kg/ha,2.0
same,GALAP herbicidal rating,GALAP (Galium) [3]; rate 0.0315 kg/ha,4.0
same,GALAP herbicidal rating,GALAP (Galium) [3]; rate 0.0630 kg/ha,5.0
same,AMBEL herbicidal rating,"AMBEL (Ragweed, Common); rate 0.0158 kg/ha",9.0
same,AMBEL herbicidal rating,"AMBEL (Ragweed, Common); rate 0.0315 kg/ha",9.0
same,AMBEL herbicidal rating,"AMBEL (Ragweed, Common); rate 0.0630 kg/ha",7.0
same,Preemergence herbicidal rating ORYSAT,"ORYSAT (Rice, Tebonnet); rate 0.0156 kg/ha",0.0
same,Preemergence herbicidal rating ORYSAT,"ORYSAT (Rice, Tebonnet); rate 0.0313 kg/ha",0.0
same,Preemergence herbicidal rating ORYSAT,"ORYSAT (Rice, Tebonnet); rate 0.0625 kg/ha",0.0
same,Preemergence herbicidal rating ORYSAT,"ORYSAT (Rice, Tebonnet); rate 0.1250 kg/ha",1.0
same,Preemergence herbicidal rating ORYSAT,"ORYSAT (Rice, Tebonnet); rate 0.2500 kg/ha",1.0
same,CYPSE herbicidal effect rating,CYPSE (Flatsedge); 0.0313 kg/ha,3.0
same,CYPSE herbicidal effect rating,CYPSE (Flatsedge); 0.0625 kg/ha,3.0
same,CYPSE herbicidal effect rating,CYPSE (Flatsedge); 0.1250 kg/ha,3.0
same,CYPSE herbicidal effect rating,CYPSE (Flatsedge); 0.2500 kg/ha,4.0
same,TRZAWR herbicidal rating,[4]; rate 0.0158 kg/ha,3.5
same,TRZAWR herbicidal rating,[4]; rate 0.0315 kg/ha,3.5
same,TRZAWR herbicidal rating,[4]; rate 0.0630 kg/ha,4.0
same,Herbicidal rating SAGPY,[5]; Rate 0.0313 kg/ha,0.0
same,Herbicidal rating SAGPY,[5]; Rate 0.0625 kg/ha,0.0
same,Herbicidal rating SAGPY,[5]; Rate 0.1250 kg/ha,0.0
same,Herbicidal rating SAGPY,[5]; Rate 0.2500 kg/ha,0.0
same,CASOB herbicidal rating,CASOB (Sicklepod); rate 0.0158 kg/ha,1.0
same,CASOB herbicidal rating,CASOB (Sicklepod); rate 0.0315 kg/ha,5.0
same,CASOB herbicidal rating,CASOB (Sicklepod); rate 0.0630 kg/ha,9.0
same,ECHORC herbicidal effect rating,[6]; 0.0313 kg/ha,9.0
same,ECHORC herbicidal effect rating,[6]; 0.0625 kg/ha,9.0
same,ECHORC herbicidal effect rating,[6]; 0.1250 kg/ha,9.0
same,ECHORC herbicidal effect rating,[6]; 0.2500 kg/ha,9.0
same,GLXMAW herbicidal rating,[7]; rate 0.0158 kg/ha,4.5
same,GLXMAW herbicidal rating,[7]; rate 0.0315 kg/ha,5.5
same,GLXMAW herbicidal rating,[7]; rate 0.0630 kg/ha,6.5
same,Preemergence herbicidal rating GALAP,GALAP (Galium) [8]; rate 0.0156 kg/ha,0.0
same,Preemergence herbicidal rating GALAP,GALAP (Galium) [8]; rate 0.0313 kg/ha,0.0
same,Preemergence herbicidal rating GALAP,GALAP (Galium) [8]; rate 0.0625 kg/ha,0.0
same,Preemergence herbicidal rating GALAP,GALAP (Galium) [8]; rate 0.1250 kg/ha,4.0
same,Preemergence herbicidal rating GALAP,GALAP (Galium) [8]; rate 0.2500 kg/ha,4.0

# From US20020137929A1, “1 - (3-heterocyclylphenyl) isothiourea, -isourea, -guanidine and -amidine herbicidal agents” (Intellectual Property Department, BASF Aktiengesellschaft, priority 1998, published 2002)
